Data reported in patent US20110039946A1, “METHOD OF IMPROVING ATOPIC DERMATOLOGICAL DISEASES, IN WHICH A COMPOSITION COMPRISING MAGNOLOL, HONOKIOL OR A COMBINATION THEREOF IS ADMINISTERED TO A PATIENT WITH ATOPIC DERMATOLOGICAL DISEASES” (BIOSPECTRUM, INC., priority 2007, published 2011).
Like-named read-outs stand apart in the source and are kept apart here.

Tests used:
TNF-alpha = TNF-alpha production induced by heat-inactivated Staphylococcus aureus in THP-1 cells (ELISA); format: cell-based, human; settings: heat-inactivated S. aureus 100 μg/ml, 48 hours
Experimental: In addition, the experiment was conducted to identify the synergistic anti-inflammatory effect when magnolol and honokiol are combined in a certain ratio. The efficacy to inhibit the production of TNF-alpha was examined in cases where the combined ratio of magnolol and honokiol is 1 (7.5 μM):1 (7.5 μM), 1 (5 μM):2 (10 μM), and 2(10 μM):1 (5 μM) or in case of treating with 15 μM of magnolol alone or 15 μM of honokiol alone.

interleukin-8 = interleukin-8 production induced by heat-inactivated Staphylococcus aureus in THP-1 cells (ELISA); format: cell-based, human; settings: heat-inactivated S. aureus 100 μg/ml, 48 hours
Experimental: In general, the inflammatory response generated by bacteria or bacterial components is mediated by proinflammatory cytokines. To determine whether magnolol or honokiol can inhibit the inflammatory response generated by Staphylococcus aureus ELISA for interleukin-8 and TNF-alpha was conducted. For this purpose, THP-1 cell line as human monocyte cell line was used. 1×10^6 THP-1 cells were incubated for 14 hours under serum-free conditions, and then treated with heat-inactivated Staphylococcus aureus 100 μg/ml alone or simultaneously with magnolol and honokiol, respectively, which was then incubated for 48 hours. The amounts of interleukin-8 and TNF-alpha secreted into cell culture medium were measured by means of ELISA kit (Genzyme, Minneapolis, Minn.).

Staphylococcus aureus [1] = assay: Minimum Inhibitory Concentration, two-fold serial dilution; format: cell-based; settings: 24 h, read-out: MIC of agents
Experimental: The test was conducted to determine the Minimum Inhibitory Concentrations (MIC) of magnolol and honokiol. Staphylococcus aureus incubated for 24 hours was introduced into 3 ml of brain heart infusion broth, and at the same time, magnolol and honokiol were respectively added thereto, and then incubated for 24 hours at 37° C. under anaerobic conditions. To determine MICs of honokiol and magnolol the two-fold serial dilution method was used. As used herein, MIC is defined as the minimum concentration at which the growth of microorganism is inhibited. As presented in Table 2, it could be confirmed that MICs of magnolol and honokiol for Staphylococcus aureus were 6 μg/ml and 2 μg/ml, respectively. That is, it can be seen that the antibacterial activity of honokiol is higher than that of magnolol.

Staphylococcus aureus [2] = assay: Minimum Bacteriocidal Concentration / kinetics of bacterial killing; format: cell-based
Experimental: The inhibition of bacterial growth with a certain substance is the result obtained by inhibiting the proliferation of respective cells or killing the cells. […] The following experiment was conducted to determine the Minimum Bacteriocidal Concentration (MBC). First, the same procedures as the determination of MIC were conducted in the liquid culture medium, and then a portion of the culture medium in the test tube in which no proliferation was shown was taken, diluted to remove magnolol and honokiol therefrom, and then incubated on the solid culture medium and observed for the colony formation after 24 hours. At this time, MBC means the minimum value of magnolol or honokiol concentration in the original culture solution in the plate medium on which no colony was produced. To determine MBC of magnolol and honokiol Staphylococcus aureus was used, and magnolol or honokiol was applied at the concentration one, five and 10 times as high as MIC concentration thereof to determine the kinetics of bacterial killing. The survival rate of microbes was determined within 2 hours.

[3] = system: patients suffering from mild or moderate atopic dermatitis; assay: clinical evaluation of skin topical preparations in atopic dermatitis (EASI, pruritus); format: in vivo, human; settings: applied as 1% cream; 2 and 4 weeks
Experimental: The cosmetic compositions for atopy containing magnolol, honokiol and pimecrolimus, respectively were prepared with the contents of components as listed in the following Table 3, according to the conventional method. In the following Table 3, the control group is for the skin topical preparation with no antibacterial and anti-inflammatory substance, and the test groups 1, 2 and 3 are for the cosmetic compositions for skin topical use to treat atopy containing magnolol, honokiol and pimecrolimus, respectively.
To prepare the skin topical preparation purified water, glycerin and butylene glycol were mixed and dissolved at 70° C. (aqueous part), and the remaining components except for the three components and trimethanolamine were dissolved at 70° C. (oil part). The oil part was added to the aqueous part and stirred with a homomixer (from Tokushu Kika Kogyo, Co., Ltd. In Japan) to induce the first emulsification to which trimethanolamine was finally added. […]
1) The symptoms and extent of atopic dermatitis were objectively determined using EASI (Eczema Area Severity Index) as follows, before treatment and 2 and 4 weeks after treatment. […]
EASI score and pruritus score were compared and evaluated by applying Kruskall-Wallis one-way ANOVA method as the basic statistical method before treatment and 2 and 4 weeks after treatment. […]

Staphylococcus aureus [4] = assay: filter-paper disk agar diffusion (Kirby-Bauer) antibacterial activity; format: cell-based; settings: S. aureus; for Diameter of clear zone: filter disk 10 mm
Experimental: The standardized filter-paper disk agar diffusion method was used to determine the antibacterial activity of magnolol and honokiol against Staphylococcus aureus. This method was also well-known as Kirby-Bauer method, and has been widely used to determine the antibacterial activity (see, European Journal of Pharmacology, Junho Park et al, 2004, 496(1-3), 189-195). Briefly, Staphylococcus aureus cells were incubated with brain heart infusion (BHI) broth at 37° C. under anaerobic conditions until they reach the stationary phase. Approximately 1×10^6 bacteria cells were mixed with 7 ml of BHI agar medium containing 0.8% phytoagar and then, poured on the agar plate containing 1.5% phytoagar. The filter-paper discs (10 mm diameter) were treated with magnolol and honokiol at respective test concentrations, and then placed on the BHI agar plate inoculated with the test bacteria. The plate was incubated at 37° C. for 24 hours under anaerobic conditions, and then the antibacterial activity was determined by measuring the size of clear zone (growth inhibition halo) around the disk. The size of clear zone has the functional relation with the logarithmic value of magnolol or honokiol concentration, from which the standard calibration curve could be derived (FIG. 1). The unknown concentration of the test sample can be determined from this standard calibration curve. […] The antibacterial activity was remarkable at 6.25 μg/disk (0.39 mM) for honokiol and 12.5 μg/disk (0.78 mM) for magnolol (Table 1).

Structure (SMILES)	production of TNF-alpha induced by Staphylococcus aureus (TNF-alpha)	production of interleukin-8 induced by Staphylococcus aureus (interleukin-8)	MIC (Staphylococcus aureus [1]) [µg/mL]	concentration at which Staphylococcus aureus was completely exterminated within 10 minutes (Staphylococcus aureus [2]) [µg/mL]	concentration at which Staphylococcus aureus was completely exterminated within 10 minutes (Staphylococcus aureus [2]; printed in brackets after μg/ml) [µM]	pruritus accompanied by atopic dermatitis (visual analog scale) [3]	amount at which the antibacterial activity was remarkable (Staphylococcus aureus [4]; disk diffusion) [μg/disk]	concentration at which the antibacterial activity was remarkable (Staphylococcus aureus [4]; disk diffusion, printed in brackets after μg/disk) [mM]	Diameter of clear zone (Staphylococcus aureus [4]; 12.5 mg/disk (footnote a))	Diameter of clear zone (Staphylococcus aureus [4]; 25 mg/disk (footnote a))	Diameter of clear zone (Staphylococcus aureus [4]; 50 mg/disk (footnote a))	Diameter of clear zone (Staphylococcus aureus [4]; 6.25 mg/disk (footnote a))
C=CCc1ccc(O)c(-c2cc(CC=C)ccc2O)c1 [Magnolol, 5,5′-di-2-propenyl-1,1′-biphenyl-2,2′-diol]	reduced	reduced	6	45	169.2	significantly improved	12.5	0.78	11 ± 0.4^c mm	15 ± 0.2^c mm	18 ± 0.2^c mm	
CC[C@H]1OC(=O)[C@H](C)[C@@H](O[C@H]2C[C@@](C)(OC)[C@@H](O)[C@H](C)O2)[C@H](C)[C@@H](O[C@@H]2O[C@H](C)C[C@H](N(C)C)[C@H]2O)[C@](C)(O)C[C@@H](C)C(=O)[C@H](C)[C@@H](O)[C@]1(C)O [Erythromycin, reference compound]									42 ± 3.8^c mm	45 ± 2.5^c mm	48 ± 5^c mm	35 ± 2.2^c mm
